Here are results for seven compounds from patent US11306098B2, “Substituted pyrrolo[1,2-a]pyrazines and pyrrolo[1,2-a][1,4]diazepines as TREX1 inhibitors” (VENENUM BIODESIGN, LLC, priority 2019, dated 2022).

For one assay, the target named is cleaved human TREX1 (Homo sapiens (Human), UniProt Q9NSU2). In words: TREX1 Thermal Shift Binding Assay (human). As to conditions: 100 μM compound, 5 μM TREX1. The protocol:
(§1) Example B is a protein thermal shift assay used to assess the binding of TREX1 inhibitors to TREX1 protein. In this assay, TREX1 protein unfolding with increasing temperature was measured in the presence and absence of TREX1 inhibitors by following the increase in fluorescence of a thiol-reactive dye (e.g BODIPY FL-cystine) as it reacts with exposed TREX1 cysteine residues. The assay was conducted using human (SEQ ID NO: 1), or murine (SEQ ID NO: 2) TREX1 protein constructs.
(§2) The thermal shift assays used recombinant protein corresponding to human (SEQ ID NO: 1) and murine (SEQ ID NO: 2) TREX1. The protein encoding plasmid contained a N-terminal MBP (maltose binding protein) tag followed by the TREX1 coding sequence within the pMAL-c5E vector. The plasmid was transfected into a BL21 (DE3) E. coli expression strain. Protein was purified from the bacterial lysate using an Amylose resin column. The MBP tag was cleaved from the purified protein using recombinant enterokinase (EMD Millipore #69066-3). The cleaved TREX1 protein was further purified on a Q-Sepharose column followed by a heparin column.
(§3) Binding of compounds to both human and murine TREX1 were measured by protein thermal shift assays. (Huynh K, Partch C L. Current Protocols in Protein Science: Analysis of protein stability and ligand interactions by thermal shift assay. Current protocols in protein science/editorial board, John E Coligan. [et al]. 2015; 79:28.9.1-28.9.14. doi:10.1002/0471140864.ps2809s79.). Thermal shift assays were conducted in sealed 96-well PCR plates containing 5 μM TREX1 protein, 100 μM compound, and 2 μM BODIPY FL-cystine (Sigma) in either 20 μL assay buffer (20 mM Tris, 7.5, 5 mM MgCl2, 0.002% Triton X-100) or 20 μL phosphate buffered saline (PBS). Using a RT-qPCR machine (Mx3005P, Stratagene) changes in fluorescence (excitation at 492 nm and emission at 516 nm) were monitored as temperature was increased from 25° C. to 96° C. at a rate of 1° C. every 2 minutes. Tm values were calculated from the first derivative plot of fluorescence intensity versus temperature. The results shown in Table 6 indicate the examples bind to human TREX1 and murine TREX1. ND indicates assay was not done.

For another assay, the target named is human TREX1 (Homo sapiens (Human), UniProt Q9NSU2). The experiment in a line: TREX1 Exonuclease Assay (human enzyme). The format is biochemical. The settings on record: human TREX1 0.5 nM, FAM/BHQ1-labeled DNA oligonucleotide. The protocol:
(§4) The TREX1 Exonuclease assay is an exemplary in vitro assay for measuring the activity of the TREX1 inhibitors of the present invention. In this assay, TREX1 exonuclease activity was evaluated by measuring the increase in fluorescence resulting from TREX1-catalyzed removal of a quencher from the 3′ end of a FAM-labeled DNA oligonucleotide (5′FAM-CCA CGA GAG CGT-BHQ1-3′). The assay was conducted using Wild Type (WT) human or murine TREX1 enzyme constructs corresponding to amino acids 55-297 of UniProt ID Q9NSU2-1 (SEQ ID NO: 1), or amino acids 1-242 of UniProt ID Q91XB0-1 (SEQ ID NO: 2), respectively. See, e.g., Example A.
(§5) For human TREX1, the nucleotide sequence of the gene construct was codon optimized for expression in the bacterial host. The sequence was incorporated into the pMAL-c5e vector (NEB) downstream of a solubility-promoting MBP (maltose binding protein) fusion partner. The fusion protein product was expressed in E. coli strain BL21 (DE3) (Millipore) and purified in a series of chromatographic steps. Initial steps were conducted using a dextrin sepharose affinity column followed by a Q-sepharose ion exchange column (both GE Healthcare). After the second column the MBP partner was removed by incubation with enterokinase (NEB). Further purification was carried out with the second application of a Q-sepharose column followed by a Superdex 75 (GE Healthcare) size exclusion column. Finally, a heparin sepharose column (GE Healthcare) was applied to remove contaminating nucleotides. Similar methods were used in the preparation of the murine TREX1 enzyme and are described in Example B set forth below.
(§6) To evaluate the effect of compounds on TREX1 activity, test compounds were serially diluted (11-point, 3-fold) from 10 mM stock solutions and delivered to 384-well low-volume assay plates in 80 nL DMSO using an acoustic dispenser. Next, 4 μL of human TREX1 (0.5 nM), or murine TREX1 (1 nM), diluted in assay buffer (20 mM Tris pH 7.5, 5 mM MgCl2, 100 μg/mL BSA, 0.002% Triton X-100, 2 mM DTT), was added to the assay plate. After incubating for 30 minutes, 4 μL of labeled DNA oligonucleotide (500 nM) in assay buffer was added to initiate TREX1 exonuclease activity. The reaction was allowed to proceed for 45 minutes at room temperature prior to the addition of 4 μL of 150 mM EDTA to halt TREX1 activity. Assay plates were equilibrated for an additional 30 minutes and read on an EnVision Plate Reader (Perkin Elmer) to measure fluorescence emission at 535 nm following excitation at 485 nm. Fluorescence was plotted as a function of log molar compound concentration and fit to four-parameter dose-response equation to determine compound IC50.

The next assay has as its target cleaved mouse TREX1 (Mus musculus (Mouse), UniProt Q91XB0). The experiment in a line: TREX1 Thermal Shift Binding Assay (mouse). As to conditions: 100 μM compound, 5 μM TREX1. The protocol:
as §1, §2, §3

Another assay concerns the target murine TREX1 (Mus musculus (Mouse), UniProt Q91XB0). In words: TREX1 Exonuclease Assay (murine enzyme). The format is biochemical. As to conditions: murine TREX1 1 nM, FAM/BHQ1-labeled DNA oligonucleotide. As to the method:
as §4, §5, §6

The test system of assay [1] is THP1 Dual cells (ISRE Lucia reporter, cGAS-STING pathway). The experiment in a line: THP1 monocyte assay, ISRE Lucia luciferase reporter. The format is cell-based, human. The settings on record: 48 hours, luciferase signal versus control wells without compound. The text has this: Example C is a cell-based assay for TREX1 inhibitors using THP1 Dual™ cells (Invivogen), a human monocyte cell line that has stable integration of an Interferon Stimulated Response Element (ISRE) Lucia reporter gene. The Lucia gene encodes a secreted luciferase reporter protein, under the control of an ISG54 minimal promoter in conjunction with five IFN-stimulated response elements. Activation of the cGAS-STING pathway in THP1 Dual™ cells leads to enhanced luciferase secretion and increased luminescence.
A cell-based assay was established using THP1 Dual™ cells (Invivogen), a human monocyte cell line that has stable integration of an Interferon Stimulated Response Element (ISRE) Lucia reporter gene. The Lucia gene encodes a secreted luciferase reporter protein, under the control of an ISG54 minimal promoter in conjunction with five IFN-stimulated response elements. Activation of the cGAS-STING pathway in these cells leads to enhanced luciferase secretion. The assay was conducted in standard 384-well white tissue culture plates. Cells (25,000 in 25 μL RPMI 1640 containing 10% Heat-Inactivated FBS, 1× Glutagro, 10 mM HEPES, 1 mM sodium pyruvate, 1× Pen/Strep, 100 μg/mL Normocin, 100 μg/mL Zeocin, 10 μg/mL Blasticidin) were added to the plate followed by 25 μL of compound in the same media+0.2% DMSO. The assay was incubated for 48 hours at 37° C. in 5% CO2. An aliquot of 5 μl was removed to combine with 12.5 μL of the luciferase detection reagent, QUANTI-Luc™ Gold (Invivogen) in a white 384-well plate. The luminescent signal was then read using an EnVision plate reader (Perkin Elmer). The fold activation was calculated by dividing the signal in wells containing test compound by the signal in the control wells without compound (see Table 7).
In general terms: In a reporter assay the amount or activity of a reporter protein is the signal.

Assay [2] concerns interferon stimulated genes (ISGs) in THP1 Dual cells. In words: RT-qPCR assay of interferon stimulated gene expression. In kind it is cell-based, human. As to conditions: substance alone, 24 hours, normalized to GAPDH, unstimulated control = 1. The text has this: Example D is a cell based assay that measures the increase in the expression of interferon stimulated genes (ISG) by RT-qPCR that are induced by TREX1 inhibitors when THP1 Dual™ cells are transfected with double-stranded DNA. The double stranded DNA used to transfect cells was VACV-70 (Invivogen), a 70 base pair oligonucleotide containing viral DNA motifs (Unterholzner L. et al., 2010. IFI16 is an innate immune sensor for intracellular DNA. Nat Immunol. 11(11):997-1004). Activation of cGAS-STING pathway in THP1 Dual™ cells increases the expression of ISGs.
The RT-qPCR assay was used to assess the ability of TREX1 inhibitors to enhance the expression of interferon stimulated genes (ISGs) in cells transfected with double-stranded DNA. The double stranded DNA used to transfect cells was VACV-70 (Invivogen), a 70 base pair oligonucleotide containing viral DNA motifs (Unterholzner L. et al., 2010. IFI16 is an innate immune sensor for intracellular DNA. Nat Immunol. 11(11):997-1004). Human THP1 Dual™ cells (Invivogen), were treated with test compound in the presence or absence of 1,200 ng/mL VACV-70, or with VACV-70 alone, for 24 hours. Cells were harvested by centrifugation and washed with phosphate buffer saline. Total RNA was isolated using Qiagen RNeasy mini kit. Genomic DNA was degraded using Thermo Scientific DNase 1 kit. Total RNA was quantified using a Nanodrop spectrophotometer. Using equal amounts of RNA, cDNA was synthesized using Invitrogen Superstrand III First Strand synthesis kit. Target and reference gene expression levels were determined by RT-qPCR using TaqMan gene expression assays and a Stratagene Mx3005P QPCR system (all reagents were from TaqMan, Applied Biosystems). Data were analyzed by the Comparative CT method. GAPDH was used for normalization. Target genes that were analyzed included interferon stimulated genes (INF-β, CXCL10, IFIT1, IFIT2, IFIT3, IFI44, and IFI44L).
Background: Real-time PCR tracks product formation cycle by cycle.

Where [3] appears, read: PBS, read-out: Thermal shift cleaved human TREX1, (ΔTm ° C.) PBS.
[4] abbreviates: assay buffer, read-out: Thermal shift cleaved human TREX1, (ΔTm ° C.) Assay buffer.
The mark [5] stands for this setting: PBS, read-out: Thermal shift cleaved mouse TREX1, (ΔTm ° C.) PBS.
Where [6] appears, read: assay buffer, read-out: Thermal shift cleaved mouse TREX1, (ΔTm ° C.) Assay buffer.

Counter-ions that a name gives are not always drawn. Like-named read-outs stand apart in the source and are kept apart here.

Chain of cleaved human TREX1 (Q9NSU2 1-242): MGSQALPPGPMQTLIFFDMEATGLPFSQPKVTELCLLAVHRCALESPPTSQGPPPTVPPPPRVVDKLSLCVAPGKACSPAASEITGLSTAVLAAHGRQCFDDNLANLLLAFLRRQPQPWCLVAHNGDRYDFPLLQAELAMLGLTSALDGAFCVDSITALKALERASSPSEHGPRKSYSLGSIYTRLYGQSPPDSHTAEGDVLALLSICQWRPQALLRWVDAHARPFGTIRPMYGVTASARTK
Chain of human TREX1 (Q9NSU2 1-242): as above
Chain of cleaved mouse TREX1 (Q91XB0 1-242): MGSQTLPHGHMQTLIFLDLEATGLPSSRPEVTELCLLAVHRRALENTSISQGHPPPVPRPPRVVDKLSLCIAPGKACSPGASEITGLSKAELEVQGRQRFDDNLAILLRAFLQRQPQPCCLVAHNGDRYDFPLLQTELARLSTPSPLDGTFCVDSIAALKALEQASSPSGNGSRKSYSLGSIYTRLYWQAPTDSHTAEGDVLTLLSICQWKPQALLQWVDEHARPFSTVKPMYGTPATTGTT
Chain of murine TREX1 (Q91XB0 1-242): as above

`N[C@@H]1C[C@H]2C(=O)N([C@H](CCC(=O)O)C(=O)NCc3ccc(C(F)(F)F)cc3)CCC(CCc3ccccc3)N2C1` (single isomer, unassigned) [Example 2B]: the ΔTm at 100 µM at cleaved human TREX1 (setting [3]) is over 8 °C; on cleaved human TREX1 (setting [4]), over 8 °C; on cleaved mouse TREX1 (setting [5]) it was 4 to 8 °C; at cleaved mouse TREX1 (setting [6]), 4 to 8 °C. Moreover, the half-maximal inhibitory concentration (IC50) on human TREX1 and against murine TREX1 was under 1000 nM throughout.

As for `CC(C)C[C@H](C(=O)NCc1ccc(Cl)c(Cl)c1)N1CCC(CCc2ccccc2)N2C[C@H](N)C[C@H]2C1=O` (stereo partly drawn) [Example 1, (2R)-2-((8R,9aS)-8-amino-1-oxo-5-phenethylhexahydro-1H-pyrrolo[1,2-a][1,4]diazepin-2(3H)-yl)-N-(3,4-dichlorobenzyl)-4-methylpentanamide.HCl], the ΔTm at 100 µM is over 8 °C at cleaved human TREX1 (setting [3]), over 8 °C at cleaved human TREX1 (setting [4]), 4 to 8 °C on cleaved mouse TREX1 (setting [5]) and 4 to 8 °C on cleaved mouse TREX1 (setting [6]).

Consider `N[C@@H]1C[C@H]2C(=O)N([C@H](CO)C(=O)NCc3ccc(Cl)c(Cl)c3)CCC(CCc3ccccc3)N2C1` (stereo partly drawn) [Example 3, (2R)-2-((8R,9aS)-8-amino-1-oxo-5-phenethylhexahydro-1H-pyrrolo[1,2-a][1,4]diazepin-2(3H)-yl)-N-(3,4-dichlorobenzyl)-3-hydroxypropanamide.HCl], for which the ΔTm at 100 µM at cleaved human TREX1 (setting [3]) was over 8 °C; on cleaved human TREX1 (setting [4]), over 8 °C; on cleaved mouse TREX1 (setting [5]) it was 4 to 8 °C; on cleaved mouse TREX1 (setting [6]), 4 to 8 °C.

As for `N[C@@H]1C[C@H]2C(=O)N([C@H](Cc3ccc(O)cc3)C(=O)NCc3ccc(Cl)c(Cl)c3)CCC(CCc3ccccc3)N2C1` (stereo partly shown) [Example 4], the ΔTm at 100 µM on cleaved human TREX1 (setting [3]) was over 8 °C; on cleaved human TREX1 (setting [4]) it was over 8 °C; on cleaved mouse TREX1 (setting [5]), 4 to 8 °C; on cleaved mouse TREX1 (setting [6]) it was 4 to 8 °C. In addition, the IC50 against human TREX1 and on murine TREX1 was under 1000 nM throughout.

In the case of `N[C@@H]1C[C@H]2C(=O)N([C@H](CC(=O)O)C(=O)NCc3ccc(Cl)c(Cl)c3)CCC(CCc3ccccc3)N2C1` (stereo partly shown) [Example 15], the IC50 (commonly the midpoint of a concentration-inhibition curve) at human TREX1 is under 1000 nM. Moreover, the “Fold activation @ 10 μM” value in assay [1] turned out to be 2. In assay [2], the CXCL10 expression worked out at 1, the IFI44L expression was found to be 20, the IFI44 expression turned out to be 20 and the IFIT1 expression amounted to 10. In assay [2], the IFIT2 expression was 32, the IFIT3 expression was determined as 20 and the IFN-β expression came to 5. The same compound had a half-inhibitory concentration (IC50) on murine TREX1 of under 1000 nM.

With `CC(C)C[C@H](C(=O)NCc1ccc(Cl)c(Cl)c1)N1CCC(CCc2ccccc2)N(CCN)CC1=O` (stereo partly shown) [Example 47], the IC50 fell in the range of 1000 to 9990 nM against human TREX1 and 10000 to 100000 nM against murine TREX1.

As to `Cc1nnc(CC[C@H](C(=O)NCc2ccc(Cl)c(Cl)c2)N2CCC(CCc3ccccc3)N3C[C@H](N)C[C@H]3C2=O)[nH]1` (stereo partly shown) [Example 48], the IC50 at human TREX1 and against murine TREX1 was under 1000 nM each time.
